In patent US12371454B2, “Cyclic peptide compound having Kras inhibitory action” (priority 2019, dated 2025):
pIC50: −log10 of the molar value. Positions of bridges follow the written chain, without caps; N, C: chain ends. Non-standard residues stand in square brackets, D forms with d. Residues, ends and D or L forms follow the SMILES beside them. *: point of attachment. hPhe(3-Cl-4-CF3) = N[C@@H](CCc1ccc(C(F)(F)F)c(Cl)c1)C(=O)O; hPhe(3-F,4-CF3) = N[C@@H](CCc1ccc(C(F)(F)F)c(F)c1)C(=O)O; NMePhe(4-Cl) = CN[C@@H](Cc1ccc(Cl)cc1)C(=O)O; NMePhe(2-Cl) = CN[C@@H](Cc1ccccc1Cl)C(=O)O; NMePhe(3-F) = CN[C@@H](Cc1cccc(F)c1)C(=O)O; hNle(7,7-F2) = N[C@@H](CCCCC(F)F)C(=O)O; NMeGly(cPent) = CN[C@H](C(=O)O)C1CCCC1; NMeCha = CN[C@@H](CC1CCCCC1)C(=O)O; NMeChg = CN[C@H](C(=O)O)C1CCCCC1; Gly(cPr) = N[C@H](C(=O)O)C1CC1; NMeD = CN[C@@H](CC(=O)O)C(=O)O; NMeL = CN[C@@H](CC(C)C)C(=O)O; NMeV = CN[C@H](C(=O)O)C(C)C; d(β3hA) = C[C@@H](N)CC(=O)O; NMeA = CN[C@@H](C)C(=O)O; NMeAib = CNC(C)(C)C(=O)O; Piperidide = C1CCN(*)CC1; Pyrrolidide = C1CCN(*)C1; dNMeA = CN[C@H](C)C(=O)O; Ac5c = NC1(C(=O)O)CCCC1; Aze = O=C(O)[C@@H]1CCN1; Sar = CNCC(=O)O

Biological target: T1, Kras and SOS1 (biotin-tagged human Kras loaded with GDP, His-tagged human SOS1) (Homo sapiens, UniProt P01116, G12D)
T1 construct: made in house; host or cells: E. coli (stated for Kras only)
T1 sequence (P01116 1-188 isoform P01116-2 G12D): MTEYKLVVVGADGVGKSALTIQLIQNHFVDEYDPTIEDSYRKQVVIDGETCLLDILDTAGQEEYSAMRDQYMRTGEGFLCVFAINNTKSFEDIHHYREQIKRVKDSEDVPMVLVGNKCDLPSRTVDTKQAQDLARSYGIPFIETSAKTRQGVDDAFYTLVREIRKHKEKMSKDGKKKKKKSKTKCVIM
Test: Protein-protein interaction inhibition between Kras and SOS1 (KrasGl2D-SOS PPI) using AlphaScreen
Format: binding
Conditions: AlphaScreen; biotin-tagged human Kras loaded with GDP, His-tagged human SOS1; read-out: KRAS G12D-SOS PPI IC50
Method: Protein-Protein Interaction Inhibition Between Kras and SOS1 (KrasGl2D-SOS PPI) Using AlphaScreen
Protein-protein interaction inhibition (PPI) between Kras and SOS1 was measured by energy transfer from nickel-conjugated donor beads to streptavidin-conjugated acceptor beads using biotin-tagged human Kras expressed in E. coli and loaded with GDP after purification and His-tagged human SOS1 enzyme. This measurement utilizes the phenomenon in which donor beads are irradiated with light at 680 nm, such that energy is transferred to acceptor beads through singlet oxygen and light at 520-620 nm is detected from the acceptor beads.
Inhibition of binding between K-ras and SOS1 is known to inhibit signaling downstream of Kras.

Row | SMILES | pIC50
1 | CC[C@H](C)[C@@H]1NC(=O)[C@H](C)N(C)C(=O)C[C@@H](C)NC(=O)[C@H](C(C)C)N(C)C(=O)C2(CCCC2)NC(=O)[C@@H]2CCCN2C(=O)[C@H](CCc2ccc(C(F)(F)F)c(Cl)c2)NC(=O)[C@H]2CCCN2C(=O)[C@H](CC2CCCCC2)N(C)C(=O)[C@@H]2CCN2C(=O)CN(C)C1=O [Compound 77] (cyclo([Ac5c][NMeV][d(β3hA)][NMeA]I[Sar][Aze][NMeCha][dP][hPhe(3-Cl-4-CF3)]P)) | 7.00
2 | CC[C@H](C)[C@@H]1NC(=O)[C@H](C)N(C)C(=O)C[C@@H](C)NC(=O)[C@H](C2CCCC2)N(C)C(=O)C2(CCCC2)NC(=O)[C@@H]2CCCN2C(=O)[C@H](CCc2ccc(C(F)(F)F)c(Cl)c2)NC(=O)CN(C)C(=O)[C@H](Cc2ccccc2Cl)N(C)C(=O)[C@@H]2CCCN2C(=O)CN(C)C1=O [Compound 82] (cyclo([Ac5c][NMeGly(cPent)][d(β3hA)][NMeA]I[Sar]P[NMePhe(2-Cl)][Sar][hPhe(3-Cl-4-CF3)]P)) | 6.85
3 | CC(C)C[C@H]1C(=O)N[C@@H](CCCCC(F)F)C(=O)N(C)CC(=O)N(C)CC(=O)N(C)[C@@H](CC2CCCCC2)C(=O)N(C)CC(=O)N[C@@H](CCc2ccc(C(F)(F)F)c(Cl)c2)C(=O)N2CCC[C@H]2C(=O)NC2(CCCC2)C(=O)N(C)[C@@H](C2CCCCC2)C(=O)N(C)[C@H](C(=O)N2CCCCC2)CC(=O)N1C [Compound 92] ([NMeL][hNle(7,7-F2)][Sar][Sar][NMeCha][Sar][hPhe(3-Cl-4-CF3)]P[Ac5c][NMeChg][NMeD]-Piperidide; lactam N-11) | 8.26
4 | CC[C@H](C)[C@@H]1NC(=O)[C@H](C)N(C)C(=O)C[C@@H](C)NC(=O)[C@H](C(C)C)N(C)C(=O)C(C)(C)N(C)C(=O)[C@@H]2CCCN2C(=O)[C@H](CCc2ccc(C(F)(F)F)c(Cl)c2)NC(=O)CN(C)C(=O)[C@H](CC2CCCCC2)N(C)C(=O)CN(C)C(=O)CN(C)C1=O [Compound 93] (cyclo(I[Sar][Sar][NMeCha][Sar][hPhe(3-Cl-4-CF3)]P[NMeAib][NMeV][d(β3hA)][NMeA])) | 8.16
5 | CC[C@H](C)[C@@H]1NC(=O)[C@H](CC(C)C)N(C)C(=O)C[C@@H](C(=O)N(C)C)N(C)C(=O)[C@H](C2CCCC2)N(C)C(=O)C2(CCCC2)NC(=O)[C@H](Cc2cccc(F)c2)N(C)C(=O)[C@H](CCc2ccc(C(F)(F)F)c(Cl)c2)NC(=O)CN(C)C(=O)[C@H](CC2CCCCC2)N(C)C(=O)[C@@H]2CCN2C(=O)[C@H](C)N(C)C1=O [Compound 95] ([NMeL]I[NMeA][Aze][NMeCha][Sar][hPhe(3-Cl-4-CF3)][NMePhe(3-F)][Ac5c][NMeGly(cPent)][NMeD]-NMe2; lactam N-11) | 7.96
6 | CC[C@H](C)[C@@H]1NC(=O)[C@H](CC(C)C)N(C)C(=O)C[C@@H](C(=O)N2CCCC2)NC(=O)[C@H](CC(C)C)NC(=O)C(C)(C)N(C)C(=O)[C@H](CC(C)C)NC(=O)[C@H](CCc2ccc(C(F)(F)F)c(F)c2)NC(=O)CN(C)C(=O)[C@H](Cc2ccc(Cl)cc2)N(C)C(=O)CN(C)C(=O)CN(C)C1=O [Compound 96] ([NMeL]I[Sar][Sar][NMePhe(4-Cl)][Sar][hPhe(3-F,4-CF3)]L[NMeAib]LD-Pyrrolidide; lactam N-11) | 6.66
7 | CC[C@H](C)[C@@H]1NC(=O)[C@H](C)N(C)C(=O)C[C@@H](C)NC(=O)[C@H](C2CCCC2)N(C)C(=O)C2(CCCC2)NC(=O)[C@@H]2CCCN2C(=O)[C@H](CCc2ccc(C(F)(F)F)c(Cl)c2)NC(=O)[C@@H](C)N(C)C(=O)[C@H](CC(C)C)N(C)C(=O)[C@@H]2CCN2C(=O)[C@H](C)N(C)C1=O [Compound 98] (cyclo([Ac5c][NMeGly(cPent)][d(β3hA)][NMeA]I[NMeA][Aze][NMeL][dNMeA][hPhe(3-Cl-4-CF3)]P)) | 7.17
8 | CC(C)C[C@H]1C(=O)N[C@@H](C2CC2)C(=O)N(C)CC(=O)N(C)CC(=O)N(C)[C@@H](CC2CCCCC2)C(=O)N(C)CC(=O)N[C@@H](CCc2ccc(C(F)(F)F)c(Cl)c2)C(=O)N2CCC[C@H]2C(=O)NC2(CCCC2)C(=O)N(C)[C@@H](C(C)C)C(=O)N[C@H](C)CC(=O)N1C [Compound 101] (cyclo([Ac5c][NMeV][d(β3hA)][NMeL][Gly(cPr)][Sar][Sar][NMeCha][Sar][hPhe(3-Cl-4-CF3)]P)) | 6.80
9 | CC[C@H](C)[C@@H]1NC(=O)[C@H](CC(C)C)N(C)C(=O)C[C@@H](C(=O)N(C)C)N(C)C(=O)[C@H](C2CCCC2)N(C)C(=O)[C@H](C(C)C)NC(=O)[C@H](C)N(C)C(=O)[C@H](CCc2ccc(C(F)(F)F)c(Cl)c2)NC(=O)CN(C)C(=O)[C@H](CC2CCCCC2)N(C)C(=O)[C@@H]2CCN2C(=O)[C@H](C)N(C)C1=O [Compound 102] ([NMeL]I[NMeA][Aze][NMeCha][Sar][hPhe(3-Cl-4-CF3)][NMeA]V[NMeGly(cPent)][NMeD]-NMe2; lactam N-11) | 7.96
